Laboratory results: patent publication US7618989B2, “Tricyclic oxazolidone derivatives useful as PR modulators” (Wyeth, priority 2006, dated 2009)

tested on: alkaline phosphatase activity in T47D cells; assay: Effects of progestins and antiprogestins on alkaline phosphatase activity in T47D cells; format: cell-based; details: Homo sapiens, antagonist mode, in the presence of 1 nM progesterone, 24 h incubation, read-out: T47D Alkaline Phosphatase Activity IC50 (nM) or % inhibition
Experimental: (1) Effects of Progestins and Antiprogestins on Alkaline Phosphatase Activity in T47D Cells.
• PURPOSE: To identify progestins or antiprogestins by determining a compound's effect on alkaline phosphatase activity in T47D cells. A. Reagents:
Culture medium: • DMEM:F12 (1:1) (GIBCO, BRL) supplemented with 5% (v/v) charcoal stripped fetal bovine serum (not heat-inactivated), 100 U/mL penicillin, 100 μg/mL streptomycin, and 2 mM the GlutaMax™ reagent (GIBCO, BRL).
Alkaline phosphatase assay buffer: • I. 0.1M Tris-HCl, pH 9.8, containing 0.2% the Triton® X-100 reagent • II. 0.1M Tris-HCl, pH 9.8, containing 4 mM p-nitrophenyl phosphate (Sigma). B. Cell Culture and Treatment:
Frozen T47D cells were thawed in a 37° C. water bath and diluted to 280,000 cells/mL in culture medium. To each well in a 96-well plate (Falcon, Becton Dickinson Labware), 180 μL of diluted cell suspension was added.
Twenty μL of reference or test compounds diluted in the culture medium was then added to each well. When testing for progestin antagonist activity, reference antiprogestins or test compounds were added in the presence of 1 nM progesterone. The cells were incubated at 37° C. in a 5% CO2/humidified atmosphere for 24 h.
NOTE: For high throughput screening, one concentration of each compound was tested at 0.3 μg/mL. Based on an average molecular weight of 300 g/mol for the compounds in the library, the concentration was approximately 1 μM. Subsequently, active compounds were tested in dose response assays to determine EC50 and IC50. C. Alkaline Phosphatase Enzyme Assay:
At the end of treatment, the medium was removed from the plate. Fifty μL of assay buffer I was added to each well. […]
For reference and test compounds, a dose response curve was generated for dose (X-axis) vs. the rate of enzyme reaction (slope) (Y-axis). […] EC50 or IC50 values were calculated from the retransformed values. […]
Progesterone and trimegestone were reference progestins and RU486 was the reference antiprogestin. All reference compounds were run in full dose response curves and the EC50 and IC50 values were calculated.

In order of falling IC50:
1. CC1(C)COC(=O)N1c1nc2c(ccc3cc(C#N)ccc32)s1 [Example 7, 2-(4,4-Dimethyl-2-oxo-1,3-oxazolidin-3-yl)naphtho[1,2-d][1,3]thiazole-7carbonitrile]  100 nM
2. CC1(C)COC(=O)N1c1nc2c(s1)CCc1cc(C#N)ccc1-2 [Example 6, 2-(4,4-Dimethyl-2-oxo-1,3-oxazolidin-3-yl)-4,5-dihydronaphtho[1,2-d][1,3]thiazole-7-carbonitrile]  27.9 nM
3. CCC1(CC)COC(=O)N1c1nc2c(s1)CCc1cc(C#N)ccc1-2 [Example 5, 2-(4,4-Diethyl-2-oxo-1,3-oxazolidin-3-yl)-4,5-dihydronaphtho[1,2-d][1,3]thiazole-7-carbonitrile]  5 nM

tested on: not given; assay: not given; details: not given

Compared with `C[C@@H]1COC(=O)N1c1nc(-c2ccc(Br)cc2)cs1` [Example 1, (4R)-3-[4-(4-Bromophenyl)-1,3-thiazol-2-yl]-4-methyl-1,3-oxazolidin-2-one], `CCC1(CC)COC(=O)N1c1nc(-c2ccc(C#N)cc2)cs1` [Example 2, 4-[2-(4,4-Diethyl-2-oxo-1,3-oxazolidin-3-yl)-1,3-thiazol-4-yl]benzonitrile] is lower in melting point: 197 to 199 °C for the first, 145 to 147 °C for the second.

`CC1(C)COC(=O)N1c1nc(-c2cccc(C#N)c2)cs1` [Example 3, 3-[2-(4,4-dimethyl-2-oxo-1,3-oxazolidin-3-yl)-1,3-thiazol-4-yl]benzonitrile] gave a melting point of 181 to 183 °C.
